Data reported in US20120321609A1, “METHOD OF TREATING PSYCHOLOGICAL DISORDERS” (priority 2011, published 2012).

Tests used:
mice = assay: Open field test (anxiety-related behaviour); type: in vivo, mouse; conditions: 5 min test; CRF 1.5 μg into medial prefrontal cortex, DOI 0.15 mg/kg i.p.; vs vehicle-vehicle or single treatment
Method: Male CD-1 mice were obtained from Charles River Canada (St. Constant, Quebec) at 50-60 days of age, and were acclimatized to the laboratory for approximately 30 days before serving as experimental subjects. Mice were housed four per cage, until the time of surgery, after which they were housed individually. The vivarium was maintained on a 12-h light/dark cycle in a temperature (21° C.) controlled room with food and water freely available. Mice were anesthetized using isoflurane and stereotaxic surgery (David Kopf Instruments Model 940) was performed to install a cannulae into the medial prefrontal cortex. A Guide cannulae (Plastics One In), situated according to the mouse atlas of Franklin and Paxinos at Lateral=0.32 mm, D/V=2.25 mm, A/P=+2.68 mm. A dummy cannula, was inserted flush with guide. Approximately 1 week after behavioral testing mice were perfused with 4% paraformaldehyde. […]
In an initial test, mice were placed in a 45×45 cm open field, with an inner square of 21×24×24 cm., for a 5 min period, during which the time to enter the center area, and the total time spent in the center portion of the arena was recorded. […] Mice were individually placed in one of the enclosed arms of a plus-maze and the behavior of the animals was recorded over a 5 min period by a ceiling-mounted video camera. […]

5-HT2CR = molecular target: T1, 5-HT2CR (Homo sapiens, UniProt P28335); assay: 5-HT-stimulated inositol phosphate formation in HEK 293 cells transfected with FLAG-5-HT2CR and HA-CRFR1; type: cell-based
T1 construct: expressed in transfected cells; host or cells: HEK 293
T1 sequence (P28335 33-458): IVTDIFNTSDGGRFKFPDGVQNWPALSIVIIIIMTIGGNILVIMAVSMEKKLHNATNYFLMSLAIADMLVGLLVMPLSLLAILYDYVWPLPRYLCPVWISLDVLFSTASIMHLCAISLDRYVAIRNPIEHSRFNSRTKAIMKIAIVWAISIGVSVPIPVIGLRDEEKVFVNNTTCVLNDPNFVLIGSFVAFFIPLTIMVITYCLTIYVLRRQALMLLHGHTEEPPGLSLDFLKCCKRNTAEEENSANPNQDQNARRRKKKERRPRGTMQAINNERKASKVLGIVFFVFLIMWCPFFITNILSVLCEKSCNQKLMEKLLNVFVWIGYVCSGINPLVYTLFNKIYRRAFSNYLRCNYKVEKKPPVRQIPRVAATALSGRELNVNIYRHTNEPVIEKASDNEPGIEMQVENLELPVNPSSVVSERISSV

ERK1/2 = ERK1/2 phosphorylation immunoblot in HEK 293 cells; type: cell-based, human; conditions: 500 nM CRF; 0, 2, 5, 15 and 30 min
Method: Following transfection, HEK 293 cells were re-seeded into 6-well plates. […] Cells were lysed with lysis buffer (50 mM Tris, pH 8.0, 150 mM NaCl, and 0.1% Triton X-100) containing protease inhibitors (1 mM AEBSF, 10 μg/ml leupeptin, and 5 μg/ml aprotinin) for 20 min on a rocking platform at 4° C. Samples were collected into 1.5 mL Eppendorf tubes and centrifuged at 15,000 g for 15 min at 4° C. to pellet insoluble material. A […] protein assay was performed and 50 μg of protein was incubated overnight at room temperature in 3×SDS Loading Buffer containing 2-mercaptoethanol. Samples were separated by SDS-PAGE, transferred to a nitrocellulose membrane, and immunoblotted for ERK1/2 (rabbit anti-p44/42 mitogen-activated protein kinase (MAPK), 1:1000), phospho-ERK1/2 (rabbit anti-phospho-p44/42 MAPK, 1:1000), SAP97 (mouse anti-SAP97, 1:1000), and HA-CRFR1 expression (mouse anti-HA, 1:1000), followed by a horseradish peroxidase-conjugated secondary anti-rabbit antibody (1:10,000) or anti-mouse antibody (1:10,000) where appropriate. Proteins were detected using chemiluminescence with the enhanced chemiluminescence kit from GE Healthcare.

[1] = test system: slices prepared from prefrontal cortex; assay: Inositol phosphate formation in prefrontal cortex slices; type: cell-based, mouse; conditions: CRF 500 nM pretreatment
Method: Slices were incubated for 15 min at 37° C. […] (final volume=270 μl).

CRF: 41 amino acid peptide that activates the HPA axis; agonist of CRF receptors
latency to enter the center square of open field (mice): neither the CRF nor the DOI treatments alone influenced performance
inositol phosphate formation by CRF treatment itself (5-HT2CR; CRF 500 nM 30 min, cells expressing 5-HT2CR alone, CRFR1 alone or both receptors): did not result in inositol phosphate formation
increase in maximum efficacy (EMAX) for 5-HT2CR-stimulated inositol phosphate formation (5-HT2CR; CRF pretreatment 500 nM for 30 min, cells expressing 5-HT2CR along with CRFR1): 47±5.5%
effect of pretreatment on 5-HT dose-response curve for inositol phosphate formation, 5-HT2CR (5-HT2CR; HEK 293 cells expressing 5-HT2CR in the absence of CRFR1, CRF 500 nM 30 min): had no effect
ERK1/2 phosphorylation in cells transfected with HA-CRFR1 and scrambled shRNA (ERK1/2): more robust and sustained activation
ERK1/2 phosphorylation in non-transfected HEK 293 cells (ERK1/2): increase in detectable ERK1/2 phosphorylation at 5 min
increase in 5-HT-stimulated inositol phosphate formation ([1]; stimulated with 5-HT): 2.3±0.2 fold
increase in DOI-stimulated inositol phosphate formation ([1]; stimulated with DOI 10 μM): 1.5±0.2 fold
